Reference: article PMC5403251 (Neuropharmacology, 2016)

Assays:
C57BL/6J mice [1] = experiment: Head twitch response; format: in vivo, mouse
β2 = β2 (Homo sapiens, UniProt P07550); experiment: NIMH PDSP binding screen
5-HT6 = 5-HT6 (Homo sapiens, UniProt P50406); experiment: NIMH PDSP binding screen
α2B = molecular target: T1, α2B (Homo sapiens, UniProt P18089); experiment: NIMH PDSP binding screen
T1 sequence (P18089 1-450): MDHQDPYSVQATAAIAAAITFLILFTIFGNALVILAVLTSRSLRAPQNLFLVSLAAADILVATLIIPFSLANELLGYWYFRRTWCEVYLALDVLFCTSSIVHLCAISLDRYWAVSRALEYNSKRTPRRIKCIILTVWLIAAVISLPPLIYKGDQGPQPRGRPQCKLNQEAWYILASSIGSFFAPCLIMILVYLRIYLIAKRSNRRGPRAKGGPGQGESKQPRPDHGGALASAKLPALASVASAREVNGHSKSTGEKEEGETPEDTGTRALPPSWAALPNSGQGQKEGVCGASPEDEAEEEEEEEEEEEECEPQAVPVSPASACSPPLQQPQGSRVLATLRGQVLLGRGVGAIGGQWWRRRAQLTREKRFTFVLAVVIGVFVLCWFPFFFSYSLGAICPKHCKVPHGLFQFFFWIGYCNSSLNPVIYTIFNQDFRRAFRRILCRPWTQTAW

human 5-HT2C receptor = molecular target: T2, human 5-HT2C receptor (Homo sapiens, UniProt P28335); experiment: NIMH PDSP competitive radioligand binding, [3H]mesulergine
T2 sequence (P28335 33-458): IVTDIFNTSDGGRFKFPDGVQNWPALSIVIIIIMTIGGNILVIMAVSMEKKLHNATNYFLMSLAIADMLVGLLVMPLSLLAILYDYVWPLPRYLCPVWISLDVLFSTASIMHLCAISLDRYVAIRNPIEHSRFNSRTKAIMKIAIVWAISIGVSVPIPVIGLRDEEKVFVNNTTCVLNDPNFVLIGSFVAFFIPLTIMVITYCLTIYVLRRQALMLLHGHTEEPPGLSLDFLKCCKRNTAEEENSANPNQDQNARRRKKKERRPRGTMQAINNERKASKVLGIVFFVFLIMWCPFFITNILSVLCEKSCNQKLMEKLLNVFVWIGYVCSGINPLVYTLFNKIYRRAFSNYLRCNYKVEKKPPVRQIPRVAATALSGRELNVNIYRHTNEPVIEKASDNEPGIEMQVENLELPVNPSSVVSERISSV

NIH Swiss mice = conditions: mediated by the 5-HT2A receptor, ref Fantegrossi et al., 2014; cited from earlier work
sigma-2 = molecular target: T3, sigma-2 (Rattus norvegicus, UniProt Q5U3Y7); experiment: NIMH PDSP binding screen
T3 sequence (Q5U3Y7 1-176): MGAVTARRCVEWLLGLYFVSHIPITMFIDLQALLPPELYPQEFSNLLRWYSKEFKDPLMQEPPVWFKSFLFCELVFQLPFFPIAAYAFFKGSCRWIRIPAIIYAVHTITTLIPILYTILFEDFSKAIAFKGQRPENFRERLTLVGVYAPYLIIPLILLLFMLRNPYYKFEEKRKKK

α2A = molecular target: T4, α2A (Homo sapiens, UniProt P08913); experiment: NIMH PDSP binding screen
T4 sequence (P08913 1-465): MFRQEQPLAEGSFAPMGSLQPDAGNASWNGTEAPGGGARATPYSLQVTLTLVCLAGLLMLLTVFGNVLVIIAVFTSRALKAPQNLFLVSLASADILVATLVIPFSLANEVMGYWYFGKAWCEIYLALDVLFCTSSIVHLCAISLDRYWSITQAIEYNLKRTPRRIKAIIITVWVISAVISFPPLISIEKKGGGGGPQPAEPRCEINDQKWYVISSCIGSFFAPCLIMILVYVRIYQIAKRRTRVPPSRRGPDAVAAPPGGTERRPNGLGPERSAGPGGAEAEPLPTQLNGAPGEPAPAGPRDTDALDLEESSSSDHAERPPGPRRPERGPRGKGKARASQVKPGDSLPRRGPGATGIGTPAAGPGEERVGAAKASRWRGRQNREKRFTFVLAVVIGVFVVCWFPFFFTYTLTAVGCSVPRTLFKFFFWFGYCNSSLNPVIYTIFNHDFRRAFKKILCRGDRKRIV

C57BL/6J mice [2] = experiment: Discrete-trials temporal discrimination task; format: in vivo, mouse
histaminergic H2 = histaminergic H2 (Homo sapiens, UniProt P25021); experiment: NIMH PDSP binding screen
Chain of histaminergic H2 (P25021 whole entry): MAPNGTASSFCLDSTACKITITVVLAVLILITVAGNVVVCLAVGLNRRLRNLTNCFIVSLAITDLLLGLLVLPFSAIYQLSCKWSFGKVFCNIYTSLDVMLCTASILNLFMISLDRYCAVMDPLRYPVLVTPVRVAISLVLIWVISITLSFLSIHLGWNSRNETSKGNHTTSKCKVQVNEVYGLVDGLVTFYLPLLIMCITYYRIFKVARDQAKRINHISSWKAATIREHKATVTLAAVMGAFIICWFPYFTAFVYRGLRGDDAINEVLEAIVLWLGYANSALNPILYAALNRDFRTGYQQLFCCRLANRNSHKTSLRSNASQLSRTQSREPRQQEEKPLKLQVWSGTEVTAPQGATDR

α2C = molecular target: T5, α2C (Homo sapiens, UniProt P18825); experiment: NIMH PDSP binding screen
T5 sequence (P18825 1-462): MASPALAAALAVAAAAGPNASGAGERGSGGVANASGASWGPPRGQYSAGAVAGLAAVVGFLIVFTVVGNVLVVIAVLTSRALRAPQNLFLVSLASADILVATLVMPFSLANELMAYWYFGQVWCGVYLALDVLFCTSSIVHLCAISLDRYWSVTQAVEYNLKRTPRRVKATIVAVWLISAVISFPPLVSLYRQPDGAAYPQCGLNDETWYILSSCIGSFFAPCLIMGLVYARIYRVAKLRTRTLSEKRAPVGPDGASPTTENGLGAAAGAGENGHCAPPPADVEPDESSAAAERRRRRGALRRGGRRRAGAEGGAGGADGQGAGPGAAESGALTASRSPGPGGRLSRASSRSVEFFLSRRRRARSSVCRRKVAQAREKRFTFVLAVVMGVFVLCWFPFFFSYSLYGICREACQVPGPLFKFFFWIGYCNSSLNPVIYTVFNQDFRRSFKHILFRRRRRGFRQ

5-HT2C = conditions: in mice; ref Canal et al., 2013; cited from earlier work
5-HT2C receptors = conditions: ref Kennett et al., 1997; cited from earlier work
[3] = 25CN-NBOH 1 mg/kg SC, 5 min before session
[4] = 25CN-NBOH 6 mg/kg SC, 5 min before session
[5] = SB-242,084 0.1 mg/kg SC, 10 min before session
[6] = SB-242,084 0.3 mg/kg SC, 10 min before session
[7] = SB-242,084 1 mg/kg SC, 10 min before session

Chain of β2 (P07550 whole entry): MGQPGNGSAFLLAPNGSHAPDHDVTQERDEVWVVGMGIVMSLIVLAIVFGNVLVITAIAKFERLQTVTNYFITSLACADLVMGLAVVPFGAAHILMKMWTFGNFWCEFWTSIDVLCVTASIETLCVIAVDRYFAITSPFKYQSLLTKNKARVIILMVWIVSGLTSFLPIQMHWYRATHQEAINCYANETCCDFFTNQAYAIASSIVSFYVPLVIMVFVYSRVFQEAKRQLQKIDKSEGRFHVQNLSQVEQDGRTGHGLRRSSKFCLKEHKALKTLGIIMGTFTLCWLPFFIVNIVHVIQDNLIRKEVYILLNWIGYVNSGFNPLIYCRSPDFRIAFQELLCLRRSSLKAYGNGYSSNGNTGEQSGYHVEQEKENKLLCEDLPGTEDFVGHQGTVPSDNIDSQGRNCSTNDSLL
Chain of 5-HT6 (P50406 whole entry, species assumed): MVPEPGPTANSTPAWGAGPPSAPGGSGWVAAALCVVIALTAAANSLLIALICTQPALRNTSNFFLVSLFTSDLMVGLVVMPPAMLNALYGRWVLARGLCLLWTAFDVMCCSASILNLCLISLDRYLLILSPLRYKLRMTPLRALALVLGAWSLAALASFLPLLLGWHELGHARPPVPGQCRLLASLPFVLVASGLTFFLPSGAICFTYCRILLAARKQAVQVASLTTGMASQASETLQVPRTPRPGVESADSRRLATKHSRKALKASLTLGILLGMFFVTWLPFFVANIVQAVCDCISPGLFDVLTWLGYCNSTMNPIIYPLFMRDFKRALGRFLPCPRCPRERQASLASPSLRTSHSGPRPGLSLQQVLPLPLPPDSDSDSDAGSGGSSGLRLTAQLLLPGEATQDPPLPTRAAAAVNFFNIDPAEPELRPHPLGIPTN

## COc1cc(CCNCc2ccccc2O)c(OC)cc1C#N.Cl [25CN-NBOH, N-(2-hydroxybenzyl)-2,5-dimethoxy-4-cyanophenethylamine hydrochloride]
C57BL/6J mice [1]; Mus musculus, sc, 0.5 h, read-out: HTR ED50
  ED50: 0.36 mg/kg
C57BL/6J mice [1]; SC, 30-min session
  Dose producing the maximal HTR response: 3 mg/kg
β2
  Ki: 1610 nM
5-HT6
  Ki: 573 nM
α2B
  Ki: 1230 nM
Human 5-HT2C receptor
  Ki: 49.8 ± 7.4 nM
NIH Swiss mice
  Head twitch response (HTR): induce the head twitch response
sigma-2
  Ki: 575 nM
α2A
  Ki: 803 nM
C57BL/6J mice [2]; [3]
  Difference limen: 1.09 ± 0.11 s
  Slope (ε): 1.098±0.125
  T50: 6.33 ± 0.20 s
  Trials completed: 182.4±3.7
C57BL/6J mice [2]; 25CN-NBOH 1 mg/kg SC, 5 min before session, mean±SEM
  Weber fraction: 0.175±0.020
C57BL/6J mice [2]; 25CN-NBOH 6 mg/kg SC
  %B responding (proportional choice of lever B): reduced %B responding at long stimulus intervals
C57BL/6J mice [2]; [4]
  Difference limen: 1.65 ± 0.12 s
  T50: 7.63 ± 0.24 s
  Trials completed: 134.5±8.4
  Weber fraction: 0.217±0.015
C57BL/6J mice [2]; 25CN-NBOH 0.3–3 mg/kg SC
  %B responding (proportional choice of lever B): did not significantly alter %B responding
C57BL/6J mice [2]; after drug treatment that reduced %B responding at long stimulus intervals
  Correct responding during the 10.5 s-trials: more than 80%
Histaminergic H2
  Ki: 1510 nM
α2C
  Ki: 543 nM

## 6-chloro-2,3-dihydro-5-methyl-N-[6-[(2-methyl-3-pyridinyl)oxy]-3-pyridinyl]-1H-indole-1-carboxyamide dihydrochloride [SB-242,084]
C57BL/6J mice [2]; SB-242,084 0.1 mg/kg SC pretreatment, DOI 3 mg/kg IP
  Effect of pretreatment on the response to DOI (%B responding): did not block the ability of DOI to alter %B responding
C57BL/6J mice [2]; [5]
  Difference limen: 0.98 ± 0.10 s
  Slope (ε): 1.202±0.110
  T50: 6.28 ± 0.14 s
  Trials completed: 191.4±1.6
C57BL/6J mice [2]; SB-242,084 0.1 mg/kg SC, 10 min before session, mean±SEM
  Weber fraction: 0.156±0.016
C57BL/6J mice [2]; [6]
  Difference limen: 1.05 ± 0.08 s
  Slope (ε): 1.094±0.084
  T50: 6.02 ± 0.14 s
  Trials completed: 189.9±2.5
  Weber fraction: 0.173±0.015
C57BL/6J mice [2]; [7]
  Difference limen: 1.07 ± 0.09 s
  Slope (ε): 1.105±0.108
  T50: 5.66 ± 0.17 s
  Trials completed: 188.0±2.8
  Weber fraction: 0.191±0.018
5-HT2C
  Selectivity for 5-HT2C over 5-HT2A: 960 fold
5-HT2C receptors
  Selectivity for 5-HT2C receptors compared with 5-HT2A and 5-HT2B receptors: over 100 fold
